Results from patent publication US4923986A, “Derivatives of physiologically active substance K-252” (Kyowa Hakko Kogyo Co., Ltd., priority 1988, dated 1990).
≈ marks a conversion by molar mass, not a printed value. Where two headings read alike, the source gives them in different places.

Assays:
[1] = biological target: C-kinase (protein kinase C); assay: C-Kinase inhibitory activity test; format: biochemical; conditions: enzyme activity inhibited 50%
HeLaS3 cells = assay: HeLaS3 cell growth inhibition test; format: cell-based; conditions: Homo sapiens, read-out: cell growth inhibitory activity IC50, HeLaS3
Description: (§1) Compound (I) was examined for C-kinase inhibitory activity and cell growth inhibitory activity by the following method.
(§2) MCF 7 cells (4.5×10^4 cells/ml) prepared in RPMI 1640 medium containing 10% fetal calf serum, 10 μg/ml insulin and 10^-8 M estradiol are put into wells of a 96-well microtiter plate in the amount of 0.1 ml per each well. After incubation at 37° C. overnight in CO2 -incubator, 0.05 ml each of a test sample appropriately diluted with the culture medium is added to each well. In the case of contact for 72 hours, the cells are further cultured in CO2 -incubator, and then the culture supernatant is removed and the wells are washed once with PBS(-). Thereafter, 0.1 ml of fresh medium is added to each well, followed by culturing at 37° C. for 72 hours in CO2 -incubator. After the culture supernatant is removed, 0.1 ml of the culture medium containing 0.02% Neutral Red is added to each well, followed by culturing at 37° C. for one hour in CO2 -incubator, whereby the cells are stained. Then, the culture supernatant is removed and the cells are washed once with physiological saline. The pigment is extracted with 0.001N HCl/30% ethanol and absorption is measured at 550 nm with a microplate reader. By comparing the absorption of intact cells with those of the cells treated with a test compound in known concentrations, the concentration of the test compound at which growth of the cells is inhibited 50% is calculated as IC50.
(3) HeLaS3 cell growth inhibition test:
HeLaS3 cells (3×10^4 cells/ml) prepared in MEM medium containing 10% fetal calf serum and 2 mM glutamine are put into wells of a 96-well microtiter plate in the amount of 0.1 ml per each well.
Thereafter, the test is carried out in the same manner as in (1).

PC-10 cells = assay: PC-10 cell growth inhibition test; format: cell-based; conditions: Homo sapiens, read-out: cell growth inhibitory activity IC50, PC-10
Description: as §1, §2
(2) PC-10 cell growth inhibition test:
PC-10 cells (5×10^4 cells/ml) prepared in MEM medium containing 10% fetal calf serum and 2 mM glutamine are put into wells of a 96-well microtiter plate in the amount of 0.1 ml per each well.
Thereafter, the test is carried out in the same manner as in the MCF 7 cell growth inhibition test.

MCF 7 cells = assay: MCF 7 cell growth inhibition test; format: cell-based; conditions: Homo sapiens, read-out: cell growth inhibitory activity IC50, MCF-7
Description: as §1
(1) MCF 7 cell growth inhibition test:
as §2

COLO320DM cells = assay: COLO320DM cell growth inhibition test; format: cell-based; conditions: Homo sapiens, COLO 320DM, read-out: cell growth inhibitory activity IC50, COLO320DM
Description: as §2, with “After” for “MCF 7 cells (4.5×10^4 cells/ml) prepared in RPMI 1640 medium containing 10% fetal calf serum, 10 μg/ml insulin and 10^-8 M estradiol are put into wells of a 96-well microtiter plate in the amount of 0.1 ml per each well. After”, “reader.” for “reader. By comparing the absorption of intact cells with those of the cells treated with a test compound in known concentrations, the concentration of the test compound at which growth of the cells is inhibited 50% is calculated as IC50.”
(4) COLO320DM cell growth inhibition test:
Thereafter, the test is carried out in the same manner as in (1) except that the cells are counted with a microcell counter.

[2] = HeLa S3, HeLaS3 cells, contact for 72 hours
[3] = PC10, PC-10 cells, contact for 72 hours
[4] = MCF7, MCF-7 cells, contact for 72 hours
[5] = COLO320DM cells, cells counted with a microcell counter

| SMILES | C-Kinase inhibitory activity IC50 [1] [µg/mL] | IC50 (HeLaS3 cells; [2]) [µg/mL] | IC50 (PC-10 cells; [3]) [µg/mL] | IC50 (HeLaS3 cells; HeLa S3, 72 h) [µg/mL] | IC50 (PC-10 cells; PC10, 72 h) [µg/mL] | IC50 (MCF 7 cells; MCF7, 72 h) [µg/mL] | IC50 (COLO320DM cells) [µg/mL] | IC50 (MCF 7 cells; [4]) [µg/mL] | IC50 (COLO320DM cells; [5]) [µg/mL] |
| --- | --- | --- | --- | --- | --- | --- | --- | --- | --- |
| C[C@]12O[C@H](C[C@]1(O)C(=O)NO)n1c3ccccc3c3c4c(c5c6ccccc6n2c5c31)CNC4=O (relative stereo) [Compound 1] | 0.005 | 0.59 (≈ 1.26 µM) | 0.14 (≈ 0.299 µM) |  |  |  |  |  |  |
| C[C@]12O[C@H](C[C@]1(O)C(N)=O)n1c3ccccc3c3c4c(c5c6ccccc6n2c5c31)CNC4=O (relative stereo) [Compound 2] | 0.003 | 0.22 (≈ 0.486 µM) | 0.03 (≈ 0.0663 µM) |  |  |  |  |  |  |
| C[C@]12O[C@H](C[C@]1(O)C(=O)NCCO)n1c3ccccc3c3c4c(c5c6ccccc6n2c5c31)CNC4=O (relative stereo) [Compound 3] | 0.018 | 0.95 (≈ 1.91 µM) | 0.68 (≈ 1.37 µM) |  |  |  |  |  |  |
| CCOC(=O)[C@@]1(O)C[C@H]2O[C@]1(C)n1c3ccccc3c3c4c(c5c6ccccc6n2c5c31)C(=O)NC4 (relative stereo) [Compound 4] | 0.13 | 0.6 (≈ 1.25 µM) | > 1 |  |  |  |  |  |  |
| COC(=O)[C@@]1(O)C[C@H]2O[C@]1(C)n1c3ccccc3c3c4c(c5c6ccccc6n2c5c31)C(=O)N(Cl)C4 (relative stereo) [Compound 5] | 0.034 | 0.51 (≈ 1.02 µM) | 0.84 (≈ 1.67 µM) |  |  |  |  |  |  |
| COC(=O)[C@@]1(O)C[C@H]2O[C@]1(C)n1c3ccccc3c3c4c(c5c6cc(Br)ccc6n2c5c31)C(=O)NC4 (relative stereo) [Compound 7] | 0.028 | 0.15 (≈ 0.275 µM) | 0.76 (≈ 1.39 µM) |  |  |  |  |  |  |
| COC(=O)[C@@]1(O)C[C@H]2O[C@]1(C)n1c3ccccc3c3c4c(c5c6cc(O)ccc6n2c5c31)C(=O)NC4 (relative stereo) [Compound 15] | 0.009 |  |  | 0.48 (≈ 0.993 µM) | 0.11 (≈ 0.228 µM) |  |  |  |  |
| C[C@]12O[C@H](C[C@]1(O)CO)n1c3ccccc3c3c4c(c5c6ccccc6n2c5c31)CNC4=O (relative stereo) [Compound 20] | 0.02 |  |  | 0.07 (≈ 0.159 µM) | 0.11 (≈ 0.25 µM) | 0.55 (≈ 1.25 µM) | 0.05 (≈ 0.114 µM) |  |  |
| C[C@]12O[C@H](C[C@]1(O)CN=[N+]=[N-])n1c3ccccc3c3c4c(c5c6ccccc6n2c5c31)CNC4=O (relative stereo) [Compound 29] | 0.06 | 0.44 (≈ 0.947 µM) | 0.71 (≈ 1.53 µM) |  |  |  |  |  |  |
| C[C@]12O[C@H](C[C@]1(O)CN)n1c3ccccc3c3c4c(c5c6ccccc6n2c5c31)CNC4=O (relative stereo) [Compound 30] | 0.015 | 0.07 (≈ 0.16 µM) | 0.04 (≈ 0.0912 µM) |  |  |  |  |  |  |
| CC12OC(CC13CO3)n1c3ccccc3c3c4c(c5c6ccccc6n2c5c31)CNC4=O (centres unmarked) [Compound 36] | 0.02 | 0.08 (≈ 0.19 µM) |  |  |  |  |  | 0.52 (≈ 1.23 µM) | 0.12 (≈ 0.285 µM) |
| CC12OC(CC1(O)CNCC(O)CO)n1c3ccccc3c3c4c(c5c6ccccc6n2c5c31)CNC4=O (centres unmarked) [Compound 43] | 0.02 | 0.19 (≈ 0.371 µM) |  |  |  |  |  | 0.52 (≈ 1.01 µM) | > 1 |
| CSCC1(O)CC2OC1(C)n1c3ccccc3c3c4c(c5c6ccccc6n2c5c31)C(=O)NC4 (centres unmarked) [Compound 45] | 0.11 | 0.55 (≈ 1.17 µM) | > 1 |  |  |  |  |  |  |
| C[S+]([O-])CC1(O)CC2OC1(C)n1c3ccccc3c3c4c(c5c6ccccc6n2c5c31)C(=O)NC4 (centres unmarked) [Compound 46] | 0.06 | > 1 | 0.27 (≈ 0.556 µM) |  |  |  |  |  |  |
| CC12OC(CC1O)n1c3ccccc3c3c4c(c5c6ccccc6n2c5c31)CNC4=O (centres unmarked) [Compound 48] | 0.022 |  |  | 0.72 (≈ 1.76 µM) | 0.48 (≈ 1.17 µM) |  |  |  |  |
| C[C@]12O[C@H](C[C@]1(O)C=NNC1=NCCN1)n1c3ccccc3c3c4c(c5c6ccccc6n2c5c31)CNC4=O [Compound 51] | 0.031 | 0.23 (≈ 0.443 µM) |  |  |  |  |  | 0.5 (≈ 0.962 µM) | 1 (≈ 1.92 µM) |
| CC12OC(CC1(O)C=NNC(=N)N)n1c3ccccc3c3c4c(c5c6ccccc6n2c5c31)CNC4=O (centres unmarked) [Compound 52] | 0.021 | 0.46 (≈ 0.932 µM) |  |  |  |  |  | 0.4 (≈ 0.81 µM) | > 1 |
| CC12OC(CC13COC(=S)O3)n1c3ccccc3c3c4c(c5c6ccccc6n2c5c31)CNC4=O (centres unmarked) [Compound 54] | 0.015 | 0.28 (≈ 0.581 µM) | 0.11 (≈ 0.228 µM) |  |  |  |  | 1 (≈ 2.08 µM) | 0.08 (≈ 0.166 µM) |
| CC12OC(CC13COS(=O)O3)n1c3ccccc3c3c4c(c5c6ccccc6n2c5c31)CNC4=O (centres unmarked) [Compound 55] | 0.038 | 0.14 (≈ 0.288 µM) | 0.64 (≈ 1.32 µM) |  |  |  |  |  |  |
| CC1=NCC2(CC3OC2(C)n2c4ccccc4c4c5c(c6c7ccccc7n3c6c42)C(=O)NC5)O1 (centres unmarked) [Compound 56] | 0.006 | 0.07 (≈ 0.151 µM) |  |  |  |  |  | 0.4 (≈ 0.865 µM) | 1 (≈ 2.16 µM) |
| CC12OC(CC13CNC(=O)O3)n1c3ccccc3c3c4c(c5c6ccccc6n2c5c31)CNC4=O (centres unmarked) [Compound 57] | 0.02 | 0.04 (≈ 0.0861 µM) | 0.1 (≈ 0.215 µM) |  |  |  |  | 0.15 (≈ 0.323 µM) | 0.37 (≈ 0.797 µM) |
| CC12OC(CC13CNC(=S)O3)n1c3ccccc3c3c4c(c5c6ccccc6n2c5c31)CNC4=O (centres unmarked) [Compound 58] | 0.017 | 0.28 (≈ 0.583 µM) | 0.69 (≈ 1.44 µM) |  |  |  |  |  |  |
| CN1CC2(CC3OC2(C)n2c4ccccc4c4c5c(c6c7ccccc7n3c6c42)C(=O)NC5)OC1=O (centres unmarked) [Compound 59] | 0.046 | 0.17 (≈ 0.355 µM) |  |  |  |  |  | 1 (≈ 2.09 µM) | 0.39 (≈ 0.815 µM) |
| CC12OC(CC13CN(CC=NNC(=N)N)C(=O)O3)n1c3ccccc3c3c4c(c5c6ccccc6n2c5c31)CNC4=O (centres unmarked) [Compound 63] | 0.053 | 0.2 (≈ 0.355 µM) |  |  |  |  |  | 0.45 (≈ 0.8 µM) | 0.64 (≈ 1.14 µM) |
| CC12OC(CC1(O)CO)n1c3ccccc3c3c4c(c5c6ccccc6n2c5c31)C(=O)N(N)C4=O (centres unmarked) [Compound 72] | 0.22 | 0.24 (≈ 0.512 µM) |  |  |  |  |  | 0.2 (≈ 0.427 µM) | 0.37 (≈ 0.79 µM) |
